Assay results reported in patent US10485769B2, “Cholesteryl ester transfer protein (CETP) inhibition in the treatment of cancer” (KING ABDULLAH UNIVERSITY OF SCIENCE AND TECHNOLOGY, priority 2015, dated 2019).

Legend:
MCF-7 cells [1] = assay: Viability of cancer cells, AP combined with chemotherapeutic drugs; type: cell-based, human; conditions: 24 h
Procedure: (§1) FIG. 13: The effect of AP on viability of BJ and MCF-7 cells when combined with different doses of various chemotherapeutic drugs for 24 h. Values represent the means±SD of three replicates.
(§2) We anticipated that AP might have the potential to reduce toxicity and increase efficacy of known chemotherapeutic drugs which may enhance the usage of these drugs at lower concentrations with increased cancer killing effects. To test this preliminary, we treated normal (BJ) and Cancer (MCF-7) cells with different chemotherapeutic drugs as summarized in FIG. 13.
(§3) It is also clear from data that the cancer killing effect achieved using 20 μM tamoxifen was possible to achieve using a combination of AP with 10 μM tamoxifen while enhancing the viability of normal cells at the same time.

MCF-7 CETP siRNA cells = assay: MMP, caspase-3/7 activity and apoptosis in CETP knockdown MCF-7 cells; type: cell-based, human; conditions: for caspases-3/7 activity / increase of level of apoptosis: 10 μM PL or AP; for caspases-3/7 activity: CETP knockdown; for increase of level of apoptosis: MCF-7 CETP siRNA cells; for reduction in MMP: 10 μM, CETP knockdown compared to Ctrl siRNA cells
Procedure: FIG. 10: The effect of CETP mRNA silencing on MMP (A), Capase-3/7 activity (B) and apoptosis in MCF-7 (C) and BJ (D) untransfected, cntl siRNA and CETP knockout cells after treatment with 10 μM PL or AP. Values represent the means±SD of three independent experiments.
FIG. 12: The effect of CETP mRNA knockout on Capase-3/7 activity (A) and apoptosis (B) in MCF-7 cntl siRNA and CETP knockout cells after treatment with 25 μM tamoxifen for 24 h. Values represent the means±SD of three independent experiments.
Since, as shown above, CETP is required for optimal growth of MCF-7 cells, we further hypothesized that CETP may help cancer cell to resist/escape apoptotic signals thus preventing cell death. Several apoptotic markers such as MOMP, phosphatidylserine exposure and caspase-3/7 activity were tested to establish a link between CETP and apoptosis.
Next, we intended to see if CETP silencing increased sensitivity of MCF-7 cells to apoptosis.
To test if effect of CETP knockout on apoptosis in MCF-7 is limited to AP, we treated the CETP knockout MCF-7 cells with tamoxifen (a known first line drug for breast cancer treatment). […] This observation was not limited to PL and AP as similar observations were made in CETP knockdown cells treated with tamoxifen (FIG. 12).

BJ cells = assay: Viability of normal cells, AP combined with chemotherapeutic drugs; type: cell-based, human
Procedure: as §1, §2, §3

CETP = CETP activity in mice plasma, CETP activity assay kit; type: in vivo; conditions: 5 mg/kg AP, compared to Vehicle
Procedure: FIG. 7: Levels of CETP mRNA in tumor (A) and protein in serum (B) in mice tumor samples after treatment with 2 mg/kg PL or 5 mg/kg AP were determined with the RT-PCR and western blotting, respectively. Fold change in expression of serum protein was determined using densitometry analysis of western blots using ImageJ (C). CETP activity in serum was estimated using CETP activity kit (name of kit/manufacturer) (D). Values represent the means±SD of three independent experiments. * where p≤0.05, and ** where p≤0.005.
The activity of CETP in mice plasma was determined using the CETP activity assay kit according to the manufacturer's instructions (FIG. 7D). CETP activity was […] in AP treated mice compared to Vehicle. This observation was in accordance with the CETP protein expression levels observed in Vehicle, AP and PL test groups. The expression levels of CETP have been reported to be linear with its activity.

MCF-7 cells [2] = conditions: as compared to BJ and triple negative BT20 cells; previously shown [1]; cited from earlier work

In the case of `CC(=O)Oc1cccc2c1C(=O)C=C(C)C2=O` [AP, Acetyl Plumbagin], the “reduction of viability of cancer cells” value (MCF-7 cells [1]; AP in combination with 5-Florouracil) is reported as 76%, the “reduction of viability of cancer cells” value (MCF-7 cells [1]; AP with 10 μM of tamoxifen) is reported as 50% and the caspases-3/7 activity (MCF-7 CETP siRNA cells) is reported as “significantly increased”. The “increase of level of apoptosis” value (MCF-7 CETP siRNA cells) was 10%, the “reduction in MMP” value (MCF-7 CETP siRNA cells) was 17% and the “increase of cell viability of normal cells” value (BJ cells; AP in combination with 5-Florouracil, 24 h) was 7%. For the same compound, the “increase of viability of normal cells” value (BJ cells; AP with 10 μM of tamoxifen, 24 h) was 7%, the “rescue of normal cells from toxic effects of tamoxifen” value (BJ cells; AP with tamoxifen at higher concentrations) was “unable to rescue” and the “CETP activity in plasma” value (CETP) was “elevated”. The “selectivity against MCF-7” value (MCF-7 cells [2]) was “selective activity”.

In the case of `CC1=CC(=O)c2c(O)cccc2C1=O` [PL, 5-hydroxy-2-methyl-1,4-naphthoquinone, reference compound], the caspases-3/7 activity (MCF-7 CETP siRNA cells) is reported as “significantly increased”, the “increase of level of apoptosis” value (MCF-7 CETP siRNA cells) is reported as 10% and the “reduction in MMP” value (MCF-7 CETP siRNA cells) is reported as 13%.
